# Source: patent US10723704B2, “Pyrazolone derivatives as nitroxyl donors” (Cardioxyl Pharmaceuticals, Inc., priority 2015, dated 2020)
# Where two headings read alike, the source gives them in different places.
# Assay: Pharmacokinetic activity in rats: IV bolus and oral gavage; plasma, brain and CSF levels by LC-MS/MS
# Format: in vivo, Male Sprague-Dawley rats
# Settings: rat; for Tmax: PO administration of Compound 6, 10 mg/kg, read-out: median Tmax; for presence in brain samples: levels believed due to contamination of brain samples with blood
# Experimental: Male Sprague-Dawley rats (n=3/group) were assigned to Groups 1 to 6. Group 1 was administered an intravenous bolus dose of 1 mg/kg a test compound in 30% polyethyleneglycol-200 (PEG-200): 10% DMSO in saline. Serial samples of blood were collected at 0.05, 0.15, 0.75, 1.5, 3, 6, 10 and 24 hours via an implanted jugular vein catheter. Groups 2-6 received oral gavage doses of a test compound, formulated in 100% PEG300 (10 mg/kg). Rats from groups 2-6 were sacrificed at 0.25, 2, 6, 10 or 24 hours post-dose and blood samples (1 mL via cardiac puncture) were collected into chilled tubes containing K2EDTA as the anticoagulant. CSF and brain tissue were also collected at these time points. Blood samples were immediately centrifuged at 3000 g for 5 minutes under refrigerated conditions (4° C.). Plasmas and CSF samples were mixed with an aqueous solution of ascorbic acid to reach a final concentration of 2%. Brain, plasma and CSF samples were stored at −80° C. until analysis. The test compound and by-product concentrations were determined by LC-MS/MS. The eluent from a reversed-phase gradient (water/acetonitrile both containing 0.1% v/v formic acid) on a 1290 UHPLC system (Agilent Technologies, Stockport, UK) was introduced by positive electrospray ionization into an API6500 mass spectrometer (AB Sciex, Warrington, UK) and analyzed by multiple reaction monitoring (MRM). The lower limit of quantification (LLOQ) was in the range 1-10 ng/mL for the test compound and by-products. The mean plasma concentration-time data for each group were used to calculate pharmacokinetic parameters of the test compound and by-products with the software program Phoenix WinNonlin version 6.4 (Certara L. P., Princeton, N.J.).
# [1] = male, Sprague-Dawley, plasma, PO administration of Compound 6, 10 mg/kg in 100% PEG300, mean, read-out: plasma Cmax
# [2] = male, Sprague-Dawley, IV bolus 1 mg/kg, plasma
smiles,measurement,setting,value
Cc1c(-c2ccc(S(C)(=O)=O)cc2)nn(CC(=O)O)c1O [2-[5-hydroxy-3-(4-methanesulfonylphenyl)-4-methyl-1H-pyrazol-1-yl]acetic acid],"levels in plasma, brain and CSF (compared with Compound 6a)",after dosing Compound 6,much lower levels
"CCOC(=O)CN1N=C(c2ccc(S(C)(=O)=O)cc2)C(C)(NO)C1=O (stereo not shown) [Compound 6, Ethyl 2-[4-(hydroxyamino)-3-(4-methanesulfonylphenyl)-4-methyl-5-oxo-4,5-dihydro-1H-pyrazol-1-yl]acetate]",Kp,"male, Sprague-Dawley, CSF, PO 10 mg/kg, 0.25-2 h, read-out: mean CSF:plasma ratio",4
same,Cmax,"male, Sprague-Dawley, CSF, PO Compound 6 10 mg/kg, at 0.25 h, read-out: Cmax in CSF",26 ± 18 ng/mL
same,Kp at 0.25 h,"male, Sprague-Dawley, brain, PO 10 mg/kg, 0.25 h, read-out: mean brain:plasma ratio",1.1
same,Cmax,"male, Sprague-Dawley, brain, PO Compound 6 10 mg/kg, at 0.25 h, read-out: Cmax in brain",8 ± 2 ng/g
same,clearance,"male, Sprague-Dawley, plasma, IV bolus 1 mg/kg in 30% PEG-200:10% DMSO in saline",41 ± 2 mL/min/kg
same,Vd,"male, Sprague-Dawley, plasma, IV bolus 1 mg/kg, read-out: volume of distribution",1.1 ± 0.1 L/kg
same,Cmax,[1],8 ng/mL
same,C0,[2],110 ± 10 ng/mL
same,half-life,[2],24 ± 0.6 min
same,Tmax,"male, Sprague-Dawley, plasma",15 min
same,absorption after oral dosing,PO 10 mg/kg,very well absorbed
same,metabolism,after oral dosing,rapidly metabolized at the ester function
same,presence in brain samples,,Traces
"CC1(NO)C(=O)N(CC(=O)O)N=C1c1ccc(S(C)(=O)=O)cc1 (stereo not shown) [Compound 6a, 2-[4-(hydroxyamino)-3-(4-methanesulfonylphenyl)-4-methyl-5-oxo-4,5-dihydro-1H-pyrazol-1-yl]acetic acid]",Cmax,"male, Sprague-Dawley, CSF, PO Compound 6 10 mg/kg, at 2 h, read-out: Cmax in CSF",107 ± 33 ng/mL
same,Cmax,"male, Sprague-Dawley, brain, PO Compound 6 10 mg/kg, at 2 h, read-out: Cmax in brain",85 ± 22 ng/g
same,Cmax,[1],5220 ng/mL
same,Tmax,"male, Sprague-Dawley, plasma",15 min
same,amount in brain,PO Compound 6 10 mg/kg,low
same,plasma concentration relative to parent compound (Compound 6),"PO Compound 6 10 mg/kg, at Cmax (0.25 h)",700 fold
same,plasma concentration relative to parent compound (Compound 6),"PO Compound 6 10 mg/kg, by 2 h",2000 fold
same,share among drug-related components observed in the samples,after dosing Compound 6,major drug-related component
same,distribution,after oral dosing of Compound 6,restricted to the periphery
same,presence in brain samples,,Traces
CCOC(=O)Cn1nc(-c2ccc(S(C)(=O)=O)cc2)c(C)c1O [ethyl 2-[5-hydroxy-3-(4-methanesulfonylphenyl)-4-methyl-1H-pyrazol-1-yl]acetate],"levels in plasma, brain and CSF (compared with Compound 6a)",after dosing Compound 6,much lower levels
